Data published in paper PMC8550792, “Evolution of kinase polypharmacology across HSP90 drug discovery” (Cell Chemical Biology, 2021).
Where “and” joins values, the source holds several entries; their conditions need not be identical. Equal values may be shown once.

Legend:
[1] = molecular target: T1, ABL2/ARG (Homo sapiens, UniProt P42684); assay: HotSpot in vitro kinase radiometric assay; type: biochemical
T1 construct: purchased Reaction Biology (HotSpot contract assay)

[2] = molecular target: T2, BLK (Homo sapiens, UniProt P51451); assay: HotSpot in vitro kinase radiometric assay; type: biochemical
T2 construct: purchased Reaction Biology (HotSpot contract assay)
In short: (§1)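 Off-target screen in a radioisotope catalytic assay: test compounds incubated with each kinase, its substrate, cofactors and 33P- or 32P-labelled ɣ-ATP. Filters retaining labelled product gave the signal.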

[3] = molecular target: T3, LYN B (Homo sapiens, UniProt P07948); assay: HotSpot in vitro kinase radiometric assay; type: biochemical
T3 construct: purchased Reaction Biology (HotSpot contract assay)
In short: as §1

[4] = molecular target: T4, PDK2/PDHK2 (Homo sapiens, UniProt Q15119); assay: HotSpot in vitro kinase radiometric assay; type: biochemical
T4 construct: purchased Reaction Biology (HotSpot contract assay)
In short: as §1

[5] = molecular target: T5, PDK4/PDKH4 (Homo sapiens, UniProt Q16654); assay: HotSpot in vitro kinase radiometric assay; type: biochemical
T5 construct: purchased Reaction Biology (HotSpot contract assay)
In short: as §1

[6] = molecular target: T6, c-Src (Homo sapiens, UniProt P12931); assay: HotSpot in vitro kinase radiometric assay; type: biochemical
T6 construct: purchased Reaction Biology (HotSpot contract assay)
In short: as §1

[7] = molecular target: T7, PEAK1 (Homo sapiens, UniProt Q9H792); assay: HotSpot in vitro kinase radiometric assay; type: biochemical
T7 construct: purchased Reaction Biology (HotSpot contract assay)

[8] = molecular target: T8, FYN (Homo sapiens, UniProt P06241); assay: HotSpot in vitro kinase radiometric assay; type: biochemical
T8 construct: purchased Reaction Biology (HotSpot contract assay)

[9] = tested on: HSP90AA1; conditions: cited from earlier work
[10] = tested on: HSP90AB1; set-up: method as in ChEMBL23 (accessed: 23/08/2018); conditions: average of reported values; ref ChEMBL23 (accessed: 23/08/2018); cited from earlier work
[11] = molecular target: ABL1 (Homo sapiens, UniProt P00519); assay: HotSpot in vitro kinase radiometric assay; type: biochemical; set-up: purchased Reaction Biology (HotSpot contract assay)
[12] = molecular target: DDR1 (Homo sapiens, UniProt Q08345); assay: HotSpot in vitro kinase radiometric assay; type: biochemical; set-up: purchased Reaction Biology (HotSpot contract assay)
DDR1, sequence (Q08345 19-913): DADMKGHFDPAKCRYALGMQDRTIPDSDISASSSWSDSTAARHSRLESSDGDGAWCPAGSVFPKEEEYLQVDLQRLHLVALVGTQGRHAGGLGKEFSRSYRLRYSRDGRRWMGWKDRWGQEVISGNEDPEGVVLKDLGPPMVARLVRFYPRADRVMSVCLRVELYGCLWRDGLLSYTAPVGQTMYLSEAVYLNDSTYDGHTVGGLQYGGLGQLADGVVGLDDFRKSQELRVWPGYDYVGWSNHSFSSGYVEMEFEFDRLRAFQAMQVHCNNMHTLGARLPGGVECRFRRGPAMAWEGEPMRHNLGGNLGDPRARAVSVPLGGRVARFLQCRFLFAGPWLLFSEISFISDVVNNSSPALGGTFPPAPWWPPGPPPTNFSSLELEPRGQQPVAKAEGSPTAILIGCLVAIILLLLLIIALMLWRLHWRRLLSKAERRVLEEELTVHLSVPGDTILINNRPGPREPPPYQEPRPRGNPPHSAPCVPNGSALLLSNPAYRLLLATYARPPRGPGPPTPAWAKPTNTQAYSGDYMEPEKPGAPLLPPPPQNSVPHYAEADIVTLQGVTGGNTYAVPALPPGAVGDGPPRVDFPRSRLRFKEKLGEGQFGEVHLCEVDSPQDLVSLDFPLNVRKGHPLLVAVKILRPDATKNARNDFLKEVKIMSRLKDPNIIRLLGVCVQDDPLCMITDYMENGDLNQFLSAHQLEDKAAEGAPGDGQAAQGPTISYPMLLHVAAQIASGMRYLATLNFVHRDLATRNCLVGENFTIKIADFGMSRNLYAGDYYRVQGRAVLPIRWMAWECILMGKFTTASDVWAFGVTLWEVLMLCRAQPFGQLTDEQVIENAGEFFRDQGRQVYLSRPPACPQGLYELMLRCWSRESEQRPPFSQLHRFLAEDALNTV

ABL1, sequence (P00519 whole entry): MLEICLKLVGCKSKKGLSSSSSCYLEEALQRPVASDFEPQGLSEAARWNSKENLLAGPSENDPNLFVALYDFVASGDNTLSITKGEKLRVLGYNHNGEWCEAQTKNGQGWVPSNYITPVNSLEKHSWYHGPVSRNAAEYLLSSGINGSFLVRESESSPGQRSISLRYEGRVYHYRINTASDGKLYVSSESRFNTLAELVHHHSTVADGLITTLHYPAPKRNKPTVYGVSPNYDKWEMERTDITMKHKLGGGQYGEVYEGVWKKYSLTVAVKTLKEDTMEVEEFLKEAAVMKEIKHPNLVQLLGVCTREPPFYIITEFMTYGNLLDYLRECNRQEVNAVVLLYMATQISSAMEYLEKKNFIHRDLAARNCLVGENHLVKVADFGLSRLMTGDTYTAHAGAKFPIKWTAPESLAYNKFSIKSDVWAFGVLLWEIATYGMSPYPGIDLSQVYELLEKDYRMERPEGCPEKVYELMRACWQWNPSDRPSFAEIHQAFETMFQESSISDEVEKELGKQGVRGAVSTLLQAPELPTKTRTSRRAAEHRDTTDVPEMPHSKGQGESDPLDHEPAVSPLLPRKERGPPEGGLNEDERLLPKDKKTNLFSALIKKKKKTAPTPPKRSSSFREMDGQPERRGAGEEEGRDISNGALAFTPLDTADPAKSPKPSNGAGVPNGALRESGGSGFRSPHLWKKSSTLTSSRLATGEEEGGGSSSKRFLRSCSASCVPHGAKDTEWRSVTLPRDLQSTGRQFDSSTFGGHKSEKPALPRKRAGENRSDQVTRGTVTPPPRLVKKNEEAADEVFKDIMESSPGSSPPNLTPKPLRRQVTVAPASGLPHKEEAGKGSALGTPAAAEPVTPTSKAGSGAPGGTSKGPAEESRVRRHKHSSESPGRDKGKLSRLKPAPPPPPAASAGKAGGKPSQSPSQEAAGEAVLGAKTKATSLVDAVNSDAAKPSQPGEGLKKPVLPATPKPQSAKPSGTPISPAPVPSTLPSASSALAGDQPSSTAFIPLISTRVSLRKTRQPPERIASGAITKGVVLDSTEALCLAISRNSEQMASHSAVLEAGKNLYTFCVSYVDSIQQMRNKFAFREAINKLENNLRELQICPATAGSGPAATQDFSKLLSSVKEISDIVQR
T3 sequence (P07948 1-491 isoform P07948-2): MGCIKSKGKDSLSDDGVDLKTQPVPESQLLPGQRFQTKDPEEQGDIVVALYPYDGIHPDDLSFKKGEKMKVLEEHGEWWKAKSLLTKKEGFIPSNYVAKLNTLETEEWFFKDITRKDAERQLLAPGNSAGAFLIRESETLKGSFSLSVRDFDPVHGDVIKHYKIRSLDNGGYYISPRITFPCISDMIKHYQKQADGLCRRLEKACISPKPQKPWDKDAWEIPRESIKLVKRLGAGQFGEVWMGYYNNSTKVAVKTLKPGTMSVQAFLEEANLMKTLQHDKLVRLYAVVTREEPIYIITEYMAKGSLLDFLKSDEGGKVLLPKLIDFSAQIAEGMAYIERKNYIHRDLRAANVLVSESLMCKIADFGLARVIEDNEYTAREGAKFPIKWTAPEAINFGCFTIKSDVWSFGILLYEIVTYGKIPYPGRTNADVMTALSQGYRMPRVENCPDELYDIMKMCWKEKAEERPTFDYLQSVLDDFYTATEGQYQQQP
T5 sequence (Q16654 whole entry): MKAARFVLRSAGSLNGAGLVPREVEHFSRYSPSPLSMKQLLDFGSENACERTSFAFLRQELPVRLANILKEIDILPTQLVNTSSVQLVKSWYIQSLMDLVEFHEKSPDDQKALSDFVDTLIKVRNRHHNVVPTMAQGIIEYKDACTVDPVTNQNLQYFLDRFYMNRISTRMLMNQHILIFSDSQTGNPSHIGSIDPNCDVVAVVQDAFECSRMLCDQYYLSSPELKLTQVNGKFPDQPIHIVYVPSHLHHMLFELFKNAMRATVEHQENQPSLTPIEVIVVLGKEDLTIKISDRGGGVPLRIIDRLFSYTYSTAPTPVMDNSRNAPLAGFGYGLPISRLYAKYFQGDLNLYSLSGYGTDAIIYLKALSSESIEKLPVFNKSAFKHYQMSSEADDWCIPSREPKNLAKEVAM
T8 sequence (P06241 whole entry): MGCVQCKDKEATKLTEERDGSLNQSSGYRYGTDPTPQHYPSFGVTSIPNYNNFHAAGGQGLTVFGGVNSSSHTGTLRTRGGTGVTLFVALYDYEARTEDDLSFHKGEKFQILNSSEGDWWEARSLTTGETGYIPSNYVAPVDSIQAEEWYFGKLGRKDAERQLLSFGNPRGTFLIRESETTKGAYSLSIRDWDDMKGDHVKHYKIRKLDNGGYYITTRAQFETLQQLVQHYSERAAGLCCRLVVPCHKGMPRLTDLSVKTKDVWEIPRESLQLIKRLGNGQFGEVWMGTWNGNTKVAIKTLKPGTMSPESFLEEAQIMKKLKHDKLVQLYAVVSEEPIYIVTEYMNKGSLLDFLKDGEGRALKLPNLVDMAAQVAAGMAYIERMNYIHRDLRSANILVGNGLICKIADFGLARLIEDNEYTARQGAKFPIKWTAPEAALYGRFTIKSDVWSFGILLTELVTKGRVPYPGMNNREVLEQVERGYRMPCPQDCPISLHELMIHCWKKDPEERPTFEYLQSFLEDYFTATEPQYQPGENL
T6 sequence (P12931 whole entry): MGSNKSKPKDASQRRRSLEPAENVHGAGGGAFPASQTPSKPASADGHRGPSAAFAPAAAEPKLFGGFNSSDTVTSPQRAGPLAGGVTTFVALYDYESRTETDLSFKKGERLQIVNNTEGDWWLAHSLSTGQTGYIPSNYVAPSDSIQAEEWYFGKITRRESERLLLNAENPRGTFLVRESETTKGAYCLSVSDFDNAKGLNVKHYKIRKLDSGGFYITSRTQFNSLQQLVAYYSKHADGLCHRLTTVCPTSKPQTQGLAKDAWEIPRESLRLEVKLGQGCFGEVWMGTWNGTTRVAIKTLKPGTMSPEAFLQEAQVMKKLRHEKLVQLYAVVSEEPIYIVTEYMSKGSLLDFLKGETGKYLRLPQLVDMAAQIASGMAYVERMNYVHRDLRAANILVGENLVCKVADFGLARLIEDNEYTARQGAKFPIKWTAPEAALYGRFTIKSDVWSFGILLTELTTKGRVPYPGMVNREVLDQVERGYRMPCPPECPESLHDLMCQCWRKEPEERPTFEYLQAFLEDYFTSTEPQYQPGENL
T2 sequence (P51451 whole entry): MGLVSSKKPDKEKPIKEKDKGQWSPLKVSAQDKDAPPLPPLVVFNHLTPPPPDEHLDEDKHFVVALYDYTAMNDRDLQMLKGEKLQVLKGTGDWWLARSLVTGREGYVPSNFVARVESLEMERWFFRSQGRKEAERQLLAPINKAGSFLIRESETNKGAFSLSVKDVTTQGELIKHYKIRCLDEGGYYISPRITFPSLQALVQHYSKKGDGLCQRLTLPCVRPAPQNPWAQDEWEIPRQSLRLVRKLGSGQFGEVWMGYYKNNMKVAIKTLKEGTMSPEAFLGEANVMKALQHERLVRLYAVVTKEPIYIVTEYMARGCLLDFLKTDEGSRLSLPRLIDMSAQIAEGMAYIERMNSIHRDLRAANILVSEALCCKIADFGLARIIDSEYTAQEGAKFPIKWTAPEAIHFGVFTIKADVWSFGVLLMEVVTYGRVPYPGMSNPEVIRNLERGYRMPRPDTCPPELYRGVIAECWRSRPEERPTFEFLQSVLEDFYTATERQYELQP

- % Enzyme Activity (relative to DMSO controls) ([1]; ABL2/ARG, 10uM, ATP 30 uM, Data 1, Data 2): 107.1%
- remaining activity at 10 µM ([1]; ABL2/ARG, 10uM, ATP 30 uM, Data 1, Data 2, read-out: % Enzyme Activity (relative to DMSO controls)): 99.9%
- inhibition at 10 µM ([1]; read-out: % inhibition at 10 uM: ABL2, 10 μM, Fig 6C median ± standard deviation (n = 2)): -4 ± 5%
- % Enzyme Activity (relative to DMSO controls) ([2]; BLK, 10uM, ATP 10 uM, Data 1, Data 2): 99.82%
- remaining activity at 10 µM ([2]; BLK, 10uM, ATP 10 uM, Data 1, Data 2, read-out: % Enzyme Activity (relative to DMSO controls)): 94%
- inhibition at 10 µM ([2]; read-out: % inhibition at 10 uM: BLK, 10 μM, Fig 6C median ± standard deviation (n = 2)): 3 ± 4%
- % Enzyme Activity (relative to DMSO controls) ([3]; LYN B, 10uM, ATP 20 uM, Data 1, Data 2): 103.45%
- remaining activity at 10 µM ([3]; LYN B, 10uM, ATP 20 uM, Data 1, Data 2, read-out: % Enzyme Activity (relative to DMSO controls)): 105%
- inhibition at 10 µM ([3]; read-out: % inhibition at 10 uM: LYN B, 10 μM, Fig 6C median ± standard deviation (n = 2)): -4 ± 1%
- % Enzyme Activity (relative to DMSO controls) ([4]; PDK2/PDHK2, 10uM, ATP 15 uM, Data 1, Data 2): 9.11% and 0.34%
- inhibition at 10 µM ([4]; read-out: % inhibition at 10 uM: PDK2, 10 μM, Fig 6C median ± standard deviation (n = 2)): 95 ± 6%
- % Enzyme Activity (relative to DMSO controls) ([5]; PDK4/PDKH4, 10uM, ATP 30 uM, Data 1, Data 2): -0.13% and 4.42%
- inhibition at 10 µM ([5]; read-out: % inhibition at 10 uM: PDK4, 10 μM, Fig 6C median ± standard deviation (n = 2)): 98 ± 3%
- % Enzyme Activity (relative to DMSO controls) ([6]; c-Src, 10uM, ATP 15 uM, Data 1, Data 2): 103.77% and 68.69%
- inhibition at 10 µM ([6]; read-out: % inhibition at 10 uM: SRC, 10 μM, Fig 6C median ± standard deviation (n = 2)): 14 ± 25%
- % Enzyme Activity (relative to DMSO controls) ([7]; PEAK1, 10uM, ATP 30 uM, Data 1, Data 2): 104.61%
- remaining activity at 10 µM ([7]; PEAK1, 10uM, ATP 30 uM, Data 1, Data 2, read-out: % Enzyme Activity (relative to DMSO controls)): 105%
- inhibition at 10 µM ([7]; read-out: % inhibition at 10 uM: PEAK1, 10 μM, Fig 6C median ± standard deviation (n = 2)): -5 ± 1%
- % Enzyme Activity (relative to DMSO controls) ([8]; FYN, 10uM, ATP 30 uM, Data 1, Data 2): 116.15%
- remaining activity at 10 µM ([8]; FYN, 10uM, ATP 30 uM, Data 1, Data 2, read-out: % Enzyme Activity (relative to DMSO controls)): 109%
- inhibition at 10 µM ([8]; read-out: % inhibition at 10 uM: FYN, 10 μM, Fig 6C median ± standard deviation (n = 2)): -13 ± 5%
- % Enzyme Activity (relative to DMSO controls) ([11]; ABL1, 10uM, ATP 40 uM, Data 1, Data 2): 99.15%
- remaining activity at 10 µM ([11]; ABL1, 10uM, ATP 40 uM, Data 1, Data 2, read-out: % Enzyme Activity (relative to DMSO controls)): 96%
- inhibition at 10 µM ([11]; read-out: % inhibition at 10 uM: ABL1, 10 μM, Fig 6C median ± standard deviation (n = 2)): 2 ± 2%
- % Enzyme Activity (relative to DMSO controls) ([12]; DDR1, 10uM, ATP 100 uM, Data 1, Data 2): 93.93%
- remaining activity at 10 µM ([12]; DDR1, 10uM, ATP 100 uM, Data 1, Data 2, read-out: % Enzyme Activity (relative to DMSO controls)): 90.3%
- inhibition at 10 µM ([12]; read-out: % inhibition at 10 uM: DDR1, 10 μM, Fig 6C median ± standard deviation (n = 2)): 8 ± 3%
Compound: CCNC(=O)c1noc(-c2cc(Cl)c(O)cc2O)c1-c1ccc(OC)cc1 [VER-50589]
- IC50 ([9]; Fig 6C, IC50 against HSP90 shown for comparison, source not given): 21 nM
- pActivity, HSP90AA1 ([9]; average of reported values, ref ChEMBL23 (accessed: 23/08/2018)): 7.55
- pActivity, HSP90AB1 [10]: 7.55
